Reference: ChEMBL document CHEMBL6109139, “Rational Design of the First Dual Agonist at Trace Amine-Associated Receptor 1 and 5-HT2C Receptors Based on Binding Pocket Similarity for the Treatment of Schizophrenia and Alzheimer's Disease-Related Psychosis” (J Med Chem, 2025)
pEC50, pIC50: −log10 of the molar value. Active and inactive are the calls of the source. No cut-off for these calls is given here.

Key:
[1] = biological target: T1, 5-hydroxytryptamine receptor 2C (Homo sapiens) (UniProt P28335); assay: Agonist activity at recombinant human 5-HT2CR expressed in HEK293 cells incubated for 2 hrs by measuring maximum efficacy by FLIPR calcium assay relative to control; type: functional, cell-based; details: filed as agonist
T1 sequence (whole entry): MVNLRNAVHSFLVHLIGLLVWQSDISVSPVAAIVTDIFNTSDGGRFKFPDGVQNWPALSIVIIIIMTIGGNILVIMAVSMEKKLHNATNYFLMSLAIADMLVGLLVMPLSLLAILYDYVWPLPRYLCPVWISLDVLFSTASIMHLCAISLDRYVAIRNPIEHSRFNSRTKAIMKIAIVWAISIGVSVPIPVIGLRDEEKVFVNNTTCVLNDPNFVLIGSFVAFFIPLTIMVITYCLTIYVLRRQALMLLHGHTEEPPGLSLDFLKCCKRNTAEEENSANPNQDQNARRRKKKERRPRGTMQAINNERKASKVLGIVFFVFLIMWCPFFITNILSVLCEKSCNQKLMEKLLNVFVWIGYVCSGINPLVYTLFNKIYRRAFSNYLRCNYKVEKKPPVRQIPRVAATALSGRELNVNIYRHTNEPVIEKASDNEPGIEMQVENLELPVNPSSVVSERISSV

[2] = test system: HEK293; assay: Agonist activity at 5HT2CR […] mutant (unknown origin) expressed in HEK293 cells assessed as IP1 level by HTRF IP1 competitive binding assay; type: cell-based; details: Homo sapiens
[3] = Metabolic stability in human liver microsomes assessed as intrinsic clearance at 1 uM incubated for 60 mins by LC-MS/MS analysis; type: ADME, Microsome; details: read-out: CLH
[4] = Inhibition of CYP2D6 in human liver microsomes in presence of NADPH by LC-MS/MS analysis; type: ADME, Microsome
[5] = Ratio of drug concentration in male Sprague-Dawley rat brain to plasma at 5 mg/kg, IG measured after 1 hrs by LC-MS/MS analysis; type: ADME, organism-based; details: brain and plasma, po, read-out: BPR
[6] = test system: Mus musculus; assay: Antipsychotic activity against MK-801 induced hyperlocomotion in male C57BL/6J mouse model assessed as reduction in hyperlocomotive state at 5 mg/kg, IG pretreated with compound followed by MK-801 addition and measured after 30 mins by open field test; type: functional, organism-based
[7] = test system: Mus musculus; assay: Antipsychotic activity against DOI-induced head-twitch response in mouse assessed as reduction in head-twitch response at 10 mg/kg, IG measured for 30 mins relative to control; type: functional; parameters: scale not given: the % may be the effect or the level left; details: 0.5 h
[8] = species on record: Mus musculus; assay: Antipsychotic activity against MK-801 induced hyperlocomotion in male C57BL/6J mouse model assessed as effective dose; type: functional
[9] = biological target: 5-hydroxytryptamine receptor 2C (Mus musculus, UniProt P34968); assay: Agonist activity at mouse 5-HT2CR; type: functional
[10] = biological target: 5-hydroxytryptamine receptor 7 (Homo sapiens, UniProt P34969); assay: Agonist activity at recombinant human 5-HT7 expressed in HEK293 cells by FLIPR calcium assay; type: functional, cell-based
[11] = biological target: Alpha-2A adrenergic receptor (Homo sapiens) (UniProt P08913); assay: Binding affinity to alpha 2A (unknown origin) at 10 uM by radioligand binding assay relative to control
[12] = biological target: Androgen receptor (Homo sapiens) (UniProt P10275); assay: Binding affinity to AR (unknown origin) at 10 uM by radioligand binding assay relative to control
[13] = biological target: Cannabinoid receptor 2 (Homo sapiens) (UniProt P34972); assay: Binding affinity to CB2 (unknown origin) at 10 uM by radioligand binding assay relative to control
[14] = biological target: Sodium-dependent noradrenaline transporter (Homo sapiens) (UniProt P23975); assay: Binding affinity to NET receptor (unknown origin) at 10 uM by radioligand binding assay relative to control
[15] = biological target: 3',5'-cyclic-AMP phosphodiesterase 4D (Homo sapiens) (UniProt Q08499); assay: Binding affinity to PDE4D2 receptor (unknown origin) at 10 uM by radioligand binding assay relative to control
[16] = Mutagenicity in Salmonella typhimurium TA100 by Ames test; type: toxicity; details: salmonella enterica subsp. enterica serovar typhimurium
[17] = Cardiotoxicity in conscious cynomolgus monkey assessed as normal spontaneous movement at 3.125 to 12.5 mg/kg, IG; type: toxicity, organism-based, Macaca fascicularis; details: in vivo, po, dose 3.125-12.5 mg/kg
[18] = Cardiotoxicity in conscious cynomolgus monkey assessed as arrhythmia at 3.125 to 12.5 mg/kg, IG measured within 24 hrs; type: toxicity, organism-based, Macaca fascicularis; details: in vivo, po, dose 3.125-12.5 mg/kg
[19] = Cardiotoxicity in conscious cynomolgus monkey assessed as decrease in body temperature at 3.125 to 12.5 mg/kg, IG by digital thermometer analysis; type: toxicity, organism-based, Macaca fascicularis; details: in vivo, po, dose 3.125-12.5 mg/kg
[20] = Toxicity in Sprague-Dawley rat assessed as stereotypy 2.5 to 7.5 mg/kg, po administered once daily for 4 weeks; type: organism-based; details: in vivo, 672 h, dose 2.5-7.5 mg/kg
[21] = Toxicity in Sprague-Dawley rat assessed as fasciculation 2.5 to 7.5 mg/kg, po administered once daily for 4 weeks; type: organism-based; details: in vivo, 672 h, dose 2.5-7.5 mg/kg
[22] = Toxicity in female Sprague-Dawley rat assessed as irritability at 2.5 mg/kg, po administered once daily for 4 weeks; type: organism-based; details: in vivo, 672 h
[23] = Toxicity in male Sprague-Dawley rat assessed as minimal corneal neovascularization at 7.5 mg/kg, po administered once daily for 4 weeks; type: organism-based; details: in vivo, 672 h
[24] = Toxicity in female Sprague-Dawley rat assessed as corneal epithelial degeneration at 7.5 mg/kg, po administered once daily for 4 weeks; type: organism-based; details: in vivo, 672 h
[25] = Toxicity in male Sprague-Dawley rat assessed as corneal epithelial degeneration at 7.5 mg/kg, po administered once daily for 4 weeks; type: organism-based; details: in vivo, 672 h
[26] = Toxicity in female Beagle dog assessed as change in body weight at 0.75 to 2.5 mg/kg, IG administered once daily for 4 weeks and measured after 4 weeks; type: organism-based, Canis lupus familiaris; details: in vivo, po, 1344 h, dose 0.75-2.5 mg/kg, time 8 weeks
[27] = Toxicity in female Beagle dog assessed as change in food consumption at 0.75 to 2.5 mg/kg, IG administered once daily for 4 weeks and measured after 4 weeks; type: organism-based, Canis lupus familiaris; details: in vivo, po, 1344 h, dose 0.75-2.5 mg/kg, time 8 weeks
[28] = Toxicity in male Beagle dog assessed as change in prolactin at 0.75 to 2.5 mg/kg, IG administered once daily for 4 weeks and measured after 4 weeks; type: organism-based, Canis lupus familiaris; details: in vivo, po, 1344 h, dose 0.75-2.5 mg/kg, time 8 weeks
[29] = Toxicity in male Beagle dog assessed as change in clinical chemistry at 0.75 to 2.5 mg/kg, IG administered once daily for 4 weeks and measured after 4 weeks; type: organism-based, Canis lupus familiaris; details: in vivo, po, 1344 h, dose 0.75-2.5 mg/kg, time 8 weeks
[30] = Toxicity in female Beagle dog assessed as change in clinical chemistry at 0.75 to 2.5 mg/kg, IG administered once daily for 4 weeks and measured after 4 weeks; type: organism-based, Canis lupus familiaris; details: in vivo, po, 1344 h, dose 0.75-2.5 mg/kg, time 8 weeks
[31] = Toxicity in female Beagle dog assessed as change in urinalysis at 0.75 to 2.5 mg/kg, IG administered once daily for 4 weeks and measured after 4 weeks; type: organism-based, Canis lupus familiaris; details: in vivo, po, 1344 h, dose 0.75-2.5 mg/kg, time 8 weeks
[32] = Toxicity in male Beagle dog assessed as change in gross necropsy at 0.75 to 2.5 mg/kg, IG administered once daily for 4 weeks and measured after 4 weeks; type: organism-based, Canis lupus familiaris; details: in vivo, po, 1344 h, dose 0.75-2.5 mg/kg, time 8 weeks
[33] = Toxicity in female Beagle dog assessed as somnolence at 2.5 mg/kg, IG administered once daily for 4 weeks; type: organism-based, Canis lupus familiaris; details: in vivo, po, 672 h

Sequence of Androgen receptor (Homo sapiens) (P10275 whole entry): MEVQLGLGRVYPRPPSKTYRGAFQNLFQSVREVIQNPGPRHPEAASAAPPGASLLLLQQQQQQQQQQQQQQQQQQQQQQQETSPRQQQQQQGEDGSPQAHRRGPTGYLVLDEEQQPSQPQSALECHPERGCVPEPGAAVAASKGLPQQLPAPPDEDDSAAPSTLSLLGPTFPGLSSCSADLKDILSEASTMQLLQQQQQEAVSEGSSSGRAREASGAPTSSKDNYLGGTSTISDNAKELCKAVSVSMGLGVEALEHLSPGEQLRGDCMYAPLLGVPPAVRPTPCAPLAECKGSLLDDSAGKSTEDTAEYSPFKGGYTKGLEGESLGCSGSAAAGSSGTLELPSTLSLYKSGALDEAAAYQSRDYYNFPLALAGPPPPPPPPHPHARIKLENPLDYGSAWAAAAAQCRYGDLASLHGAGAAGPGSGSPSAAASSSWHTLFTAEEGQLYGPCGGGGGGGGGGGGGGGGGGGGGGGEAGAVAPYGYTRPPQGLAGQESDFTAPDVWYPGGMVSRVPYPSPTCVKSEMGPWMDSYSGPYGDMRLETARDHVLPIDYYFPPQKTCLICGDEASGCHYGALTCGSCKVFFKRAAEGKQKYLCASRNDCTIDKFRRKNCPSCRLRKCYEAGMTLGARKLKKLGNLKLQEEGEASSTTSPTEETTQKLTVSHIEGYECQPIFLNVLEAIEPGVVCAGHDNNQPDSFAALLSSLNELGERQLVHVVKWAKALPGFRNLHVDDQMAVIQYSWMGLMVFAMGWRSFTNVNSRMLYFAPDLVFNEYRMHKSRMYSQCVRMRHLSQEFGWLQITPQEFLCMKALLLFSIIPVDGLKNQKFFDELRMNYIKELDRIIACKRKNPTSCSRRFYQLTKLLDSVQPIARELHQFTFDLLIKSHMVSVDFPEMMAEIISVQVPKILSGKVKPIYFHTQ
Sequence of Alpha-2A adrenergic receptor (Homo sapiens) (P08913 whole entry): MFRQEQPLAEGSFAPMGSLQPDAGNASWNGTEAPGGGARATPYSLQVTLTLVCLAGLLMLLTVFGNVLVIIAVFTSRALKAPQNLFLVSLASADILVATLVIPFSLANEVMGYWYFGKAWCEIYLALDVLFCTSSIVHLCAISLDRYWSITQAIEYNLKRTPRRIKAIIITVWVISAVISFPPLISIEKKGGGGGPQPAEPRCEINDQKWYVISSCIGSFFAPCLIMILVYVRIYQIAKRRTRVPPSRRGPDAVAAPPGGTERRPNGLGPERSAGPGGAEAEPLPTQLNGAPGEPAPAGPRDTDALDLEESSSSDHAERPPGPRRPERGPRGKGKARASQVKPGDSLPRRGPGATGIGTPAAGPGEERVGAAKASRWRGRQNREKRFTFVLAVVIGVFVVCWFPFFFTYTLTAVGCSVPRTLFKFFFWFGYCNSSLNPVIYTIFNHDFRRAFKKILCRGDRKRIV
Sequence of 5-hydroxytryptamine receptor 7 (P34969 whole entry): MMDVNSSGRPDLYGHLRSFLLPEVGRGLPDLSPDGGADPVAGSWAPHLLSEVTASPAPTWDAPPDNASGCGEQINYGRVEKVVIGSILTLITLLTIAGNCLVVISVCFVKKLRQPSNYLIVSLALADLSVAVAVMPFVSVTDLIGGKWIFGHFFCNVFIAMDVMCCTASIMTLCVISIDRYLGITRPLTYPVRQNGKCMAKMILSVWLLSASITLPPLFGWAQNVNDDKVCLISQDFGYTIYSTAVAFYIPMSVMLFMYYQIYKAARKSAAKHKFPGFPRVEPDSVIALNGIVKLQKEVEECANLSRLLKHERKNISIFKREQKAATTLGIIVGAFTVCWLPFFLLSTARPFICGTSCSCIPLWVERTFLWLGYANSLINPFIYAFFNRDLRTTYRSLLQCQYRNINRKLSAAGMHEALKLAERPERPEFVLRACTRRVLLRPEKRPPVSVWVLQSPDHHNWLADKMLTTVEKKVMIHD
Sequence of Cannabinoid receptor 2 (Homo sapiens) (P34972 whole entry): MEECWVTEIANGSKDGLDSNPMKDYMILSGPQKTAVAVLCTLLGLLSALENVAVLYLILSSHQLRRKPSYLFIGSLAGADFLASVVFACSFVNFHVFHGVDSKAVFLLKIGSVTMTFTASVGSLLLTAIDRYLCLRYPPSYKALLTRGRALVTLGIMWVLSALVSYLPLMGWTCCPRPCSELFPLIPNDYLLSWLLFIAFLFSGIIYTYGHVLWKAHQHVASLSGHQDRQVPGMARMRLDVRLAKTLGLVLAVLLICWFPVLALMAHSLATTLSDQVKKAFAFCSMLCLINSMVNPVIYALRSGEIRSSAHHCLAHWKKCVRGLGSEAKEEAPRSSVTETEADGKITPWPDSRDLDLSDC
Sequence of 3',5'-cyclic-AMP phosphodiesterase 4D (Homo sapiens) (Q08499 whole entry): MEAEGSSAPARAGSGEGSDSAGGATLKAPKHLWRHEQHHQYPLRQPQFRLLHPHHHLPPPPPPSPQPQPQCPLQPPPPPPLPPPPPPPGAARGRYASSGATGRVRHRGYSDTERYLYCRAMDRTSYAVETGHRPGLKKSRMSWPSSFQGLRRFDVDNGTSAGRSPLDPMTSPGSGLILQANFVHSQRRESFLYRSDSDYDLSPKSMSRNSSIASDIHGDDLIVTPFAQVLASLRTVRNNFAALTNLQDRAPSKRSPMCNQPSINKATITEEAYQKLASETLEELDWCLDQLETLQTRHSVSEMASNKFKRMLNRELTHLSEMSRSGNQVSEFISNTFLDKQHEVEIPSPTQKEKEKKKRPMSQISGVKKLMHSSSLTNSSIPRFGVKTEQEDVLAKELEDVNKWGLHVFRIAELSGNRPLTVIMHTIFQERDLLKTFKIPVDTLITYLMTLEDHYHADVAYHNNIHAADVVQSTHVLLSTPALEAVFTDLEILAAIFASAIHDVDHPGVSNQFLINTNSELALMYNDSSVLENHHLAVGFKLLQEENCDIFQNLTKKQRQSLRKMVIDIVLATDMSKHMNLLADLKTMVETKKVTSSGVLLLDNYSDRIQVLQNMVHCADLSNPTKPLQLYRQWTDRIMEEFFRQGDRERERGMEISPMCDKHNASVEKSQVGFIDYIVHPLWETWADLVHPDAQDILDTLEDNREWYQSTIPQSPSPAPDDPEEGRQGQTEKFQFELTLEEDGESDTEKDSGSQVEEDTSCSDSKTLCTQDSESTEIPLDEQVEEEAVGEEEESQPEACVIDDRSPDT
Sequence of Sodium-dependent noradrenaline transporter (Homo sapiens) (P23975 whole entry): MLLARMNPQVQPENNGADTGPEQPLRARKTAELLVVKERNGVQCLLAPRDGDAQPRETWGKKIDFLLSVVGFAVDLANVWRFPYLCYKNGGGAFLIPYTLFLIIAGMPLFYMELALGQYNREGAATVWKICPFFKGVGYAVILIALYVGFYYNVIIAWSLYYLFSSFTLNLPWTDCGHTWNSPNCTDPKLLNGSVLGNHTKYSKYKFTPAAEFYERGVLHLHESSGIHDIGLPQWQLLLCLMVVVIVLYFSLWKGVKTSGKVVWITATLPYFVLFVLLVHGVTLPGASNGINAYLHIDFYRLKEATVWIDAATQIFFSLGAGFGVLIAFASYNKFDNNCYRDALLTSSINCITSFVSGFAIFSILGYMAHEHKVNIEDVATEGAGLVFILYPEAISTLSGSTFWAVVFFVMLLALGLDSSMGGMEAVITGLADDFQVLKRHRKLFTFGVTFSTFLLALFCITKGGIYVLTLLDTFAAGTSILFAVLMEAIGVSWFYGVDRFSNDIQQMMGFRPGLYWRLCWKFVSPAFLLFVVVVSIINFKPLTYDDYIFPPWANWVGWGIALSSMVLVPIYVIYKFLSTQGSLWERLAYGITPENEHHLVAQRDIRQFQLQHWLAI
Sequence of 5-hydroxytryptamine receptor 2C (P34968 whole entry): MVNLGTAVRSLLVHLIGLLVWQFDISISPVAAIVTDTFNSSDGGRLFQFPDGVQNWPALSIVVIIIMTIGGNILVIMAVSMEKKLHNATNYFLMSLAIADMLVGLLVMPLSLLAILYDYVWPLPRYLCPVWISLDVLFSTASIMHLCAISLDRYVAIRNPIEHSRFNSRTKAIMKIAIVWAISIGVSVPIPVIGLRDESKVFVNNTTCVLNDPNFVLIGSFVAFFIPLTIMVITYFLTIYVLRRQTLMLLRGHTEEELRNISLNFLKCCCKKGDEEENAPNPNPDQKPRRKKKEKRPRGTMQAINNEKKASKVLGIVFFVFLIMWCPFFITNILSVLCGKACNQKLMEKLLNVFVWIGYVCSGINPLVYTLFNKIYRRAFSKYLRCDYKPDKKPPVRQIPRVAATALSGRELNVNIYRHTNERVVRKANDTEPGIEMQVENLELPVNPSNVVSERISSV

c1cc2c(s1)[C@@H]1CNCCN1CC2
Emax [1]: 100% | Activity [2]: inactive | CLint scaled at 1 µM [3]: 6.8 mL/min/kg | pIC50 [4]: < 4.30 | Kp at 1 h [5]: 6.02 | Activity [6]: Active; More Effective Than Aripiprazole | Activity [7]: 100% | ED50 [8]: 2.81 mg/kg | pEC50 [9]: 7.13 | pEC50 [10]: 4.96 | Activity [11]: 72.7% | Activity [12]: -5.37% | Activity [13]: 2.7% | Activity [14]: 8.57% | Activity [15]: 5.4% | Activity [16]: Non-toxic | Activity [17]: Non-toxic | Activity [18]: Non-toxic | Activity [19]: Non-toxic | Activity [20]: Non-toxic | Activity [21]: Non-toxic | Activity [22]: Toxic | Activity [23]: Toxic | Activity [24]: Toxic | Activity [25]: Toxic | Activity [26]: Non-toxic | Activity [27]: Non-toxic | Activity [28]: Non-toxic | Activity [29]: Non-toxic | Activity [30]: Non-toxic | Activity [31]: Non-toxic | Activity [32]: Non-toxic | Activity [33]: Toxic
